US20240016805A1, “THERAPEUTIC METHODS AND COMPOSITIONS FOR TREATING PANCREATIC CANCER USING DEVIMISTAT” (Cornerstone Pharmaceuticals, Inc., priority 2020, published 2024)

Key:
[1] = system: advanced pancreatic cancer; conditions: gemcitabine vs. fluorouracil (Burris 1997); cited from earlier work
metastatic PDA = conditions: patients with metastatic PDA (Von Hoff 2013); cited from earlier work
[2] = system: metastatic pancreatic cancer; conditions: metastatic pancreatic cancer (Conroy 2011); cited from earlier work
[3] = Animal studies of IV administration of devimistat (acute toxicity, local inflammation); assay type: in vivo
Description: Devimistat must be administered IV, via an IV catheter that is free flowing and free of air in the dead space of the IV catheter, to minimize vascular irritation, inflammation and acute toxicity of devimistat (Study NCL-049). […] To avoid local reactions at and around the site of administration, devimistat must be administered via a central venous catheter.
Devimistat must not be administered as a bolus, but by infusion, at a rate of ˜4 mL/min, via a central venous catheter with D5W running at a rate of about 125-150 mL/hr. This is to minimize potential acute toxicity of devimistat, according to animal studies.

[4] = Adverse events and potential risks attributed to the study drugs; assay type: in vivo; conditions: expected adverse event
Text: Probably related: Creatinine (expected Adverse Event).
Attribution is the relationship between an adverse event or serious adverse event and the study drug. Attribution will be assigned as follows: • Definite—The AE is clearly related to the study drug. • Probable—The AE is likely related to the study drug. • Possible—The AE may be related to the study drug. • Unlikely—The AE is doubtfully related to the study drug. • Unrelated—The AE is clearly NOT related to the study drug.

[5] = Compatibility of devimistat with IV infusion sets, IV bags and syringes; assay type: physicochemical
Description: Therefore, DEHP-containing IV infusion sets, IV bags or syringes should not be used in mixing or administration of devimistat.
A compatibility study has been conducted showing that devimistat is compatible with 4 commonly used IV infusion sets. Therefore, these 4 types of IV infusion sets, and IV infusion sets that are made with the same materials, can be used to administer devimistat.
Compatibility studies have shown that devimistat drug product (50 mg/mL), and drug product diluted with D5W to various concentrations (1.6-25 mg/mL) are compatible with various types of syringes, as listed below. Therefore, any of these types of syringes, and syringes that are made with the same materials, can be used to administer devimistat. Also, glass syringes can also be used, since glass (such as glass containers) is compatible with devimistat drug product. • Norm-Ject, polyethylene barrel, polyethylene plunger, latex free (Henke Sass Wolf GMBH) syringes • Becton Dickinson syringes • Terumo syringes • Monoject syringes • Glass syringes

[6] = system: metastatic pancreatic cancer; conditions: cited from earlier work
[7] = 18 patients who received the MTD, with mFOLFIRINOX

Row | Structure (SMILES) | overall survival [1] | overall survival (metastatic PDA) | progression free survival (PFS) (metastatic PDA) | PFS [2] | overall survival [2] | partial response rate [2] | effect of accidental co-administration of extra air in the dead space of IV catheters ([3]; animal studies, IV administration) | effect of accidental leakage into the perivascular space during IV administration ([3]; in vivo, iv) | adverse events probably related [4] | compatibility with IV infusion sets ([5]; 4 commonly used IV infusion sets (PVC, latex, polyethylene)) | leaching of DEHP ([5]; DEHP-containing IV infusion sets and IV bags) | Grade 1-2 toxicity observed [6, 7] | common grade 3/4 toxicities [6, 7] | specific risks attributed beyond the toxicities associated with mFOLFIRINOX ([6]; pilot Phase 1 study)
1 | O=c1[nH]cc(F)c(=O)[nH]1 [fluorouracil, 5-fluoro-1H-pyrimidine-2,4-dione] | 4.4 months |  |  |  |  |  |  |  |  |  |  |  |  | 
2 | Nc1ccn([C@@H]2O[C@H](CO)[C@@H](O)C2(F)F)c(=O)n1 [gemcitabine] | 5.6 months | 6.7 months | 3.7 months | 3.3 months | 6.8 months | 9% |  |  |  |  |  |  |  | 
3 | O=C(O)CCCCC(CCSCc1ccccc1)SCc1ccccc1 (stereo not drawn) [devimistat, 6,8-bis(benzylsulfanyl)octanoic acid] |  |  |  |  |  |  | potential to induce acute toxicity | can induce significant local inflammation | Creatinine | compatible | can cause leaching of DEHP | sensory neuropathy | hypokalemia, diarrhea, abdominal pain, hyperglycemia, peripheral neuropathy, neutropenia, lymphopenia, anemia, and thrombocytopenia | no specific risks that have been definitively observed and attributed to devimistat
